# Test results: US12421240B2, “Hydropyrazino[1,2-d][1,4]diazepine compounds for the treatment of autoimmune disease” (Hoffmann-La Roche Inc., priority 2019, dated 2025)
# Target: T1, human TLR7 (Homo sapiens, UniProt Q9NYK1)
# T1 sequence (Q9NYK1 27-1049): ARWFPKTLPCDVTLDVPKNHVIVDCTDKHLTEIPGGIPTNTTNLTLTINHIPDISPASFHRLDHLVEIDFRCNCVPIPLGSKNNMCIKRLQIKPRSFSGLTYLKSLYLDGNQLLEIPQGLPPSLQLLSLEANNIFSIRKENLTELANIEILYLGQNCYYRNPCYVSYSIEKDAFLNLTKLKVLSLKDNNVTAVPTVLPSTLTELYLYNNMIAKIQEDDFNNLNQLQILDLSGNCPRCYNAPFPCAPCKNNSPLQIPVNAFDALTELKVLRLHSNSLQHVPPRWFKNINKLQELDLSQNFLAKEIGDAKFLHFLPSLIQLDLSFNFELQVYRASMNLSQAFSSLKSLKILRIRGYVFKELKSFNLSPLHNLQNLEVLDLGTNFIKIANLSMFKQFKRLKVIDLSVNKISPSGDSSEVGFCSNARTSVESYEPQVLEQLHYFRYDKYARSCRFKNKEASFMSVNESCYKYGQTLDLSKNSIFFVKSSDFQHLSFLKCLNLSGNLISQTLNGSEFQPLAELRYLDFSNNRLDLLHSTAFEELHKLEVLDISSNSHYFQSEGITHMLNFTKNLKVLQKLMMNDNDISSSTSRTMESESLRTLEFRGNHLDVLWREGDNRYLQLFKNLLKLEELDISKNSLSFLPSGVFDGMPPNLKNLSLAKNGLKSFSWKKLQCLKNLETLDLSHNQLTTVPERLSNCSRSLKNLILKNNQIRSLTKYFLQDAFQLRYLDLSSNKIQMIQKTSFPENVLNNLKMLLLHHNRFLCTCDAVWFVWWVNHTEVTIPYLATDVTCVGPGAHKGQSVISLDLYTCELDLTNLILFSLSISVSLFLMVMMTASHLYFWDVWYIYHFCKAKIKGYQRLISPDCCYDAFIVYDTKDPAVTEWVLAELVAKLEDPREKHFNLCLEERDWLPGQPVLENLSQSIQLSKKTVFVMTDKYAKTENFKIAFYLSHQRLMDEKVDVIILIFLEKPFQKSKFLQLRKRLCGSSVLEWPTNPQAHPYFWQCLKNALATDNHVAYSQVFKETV
# Assay: HEK293-Blue-hTLR-7 cells assay (SEAP reporter, R848 stimulation)
# Type: cell-based
# Settings: HEK293-Blue-hTLR7 cells, R848 ligand, 20 hrs; read-out: HEK/hTLR7 IC50
# Method: The following tests were carried out in order to determine the activity of the compounds of formula (I), (Ia) or (Ib) in HEK293-Blue-hTLR-7/8/9 cells assay.
# HEK293-Blue-hTLR-7 Cells Assay:
# A stable HEK293-Blue-hTLR-7 cell line was purchased from InvivoGen (Cat. #: hkb-htlr7, San Diego, California, USA). These cells were originally designed for studying the stimulation of human TLR7 by monitoring the activation of NF-κB. A SEAP (secreted embryonic alkaline phosphatase) reporter gene was placed under the control of the IFN-β minimal promoter fused to five NF-κB and AP-1-binding sites. The SEAP was induced by activating NF-κB and AP-1 via stimulating HEK-Blue hTLR7 cells with TLR7 ligands. Therefore the reporter expression was declined by TLR7 antagonist under the stimulation of a ligand, such as R848 (Resiquimod), for incubation of 20 hrs. The cell culture supernatant SEAP reporter activity was determined using QUANTI-Blue™ kit (Cat. #: rep-qb1, Invivogen, San Diego, Ca., USA) at a wavelength of 640 nm, a detection medium that turns purple or blue in the presence of alkaline phosphatase.
# HEK293-Blue-hTLR7 cells were incubated at a density of 250,000-450,000 cells/mL in a volume of 170 μL in a 96-well plate in Dulbecco's Modified Eagle's medium (DMEM) containing 4.5 g/L glucose, 50 U/mL penicillin, […], […], 2 mM L-glutamine, 10% (v/v) heat-inactivated fetal bovine serum with addition of 20 μL test compound in a serial dilution in the presence of final DMSO at 1% and 10 μL of 20 uM R848 in above DMEM, perform incubation under 37° C. in a CO2 incubator for 20 hrs. Then 20 μL of the supernatant from each well was incubated with 180 μL Quanti-blue substrate solution at 37° C. for 2 hrs and the absorbance was read at 620655 nm using a spectrophotometer. The signaling pathway that TLR7 activation leads to downstream NF-κB activation has been widely accepted, and therefore similar reporter assay was modified for evaluating TLR7 antagonist.
row,IC50,Compound
1,88.5 nM,"C[C@@H]1CN(c2ccc(C#N)c3ncccc23)C[C@@H]2CCN(c3ccc(N4CCNCC4)nc3)CCN21 [Example 1, 5-[(4R,10aS)-4-methyl-8-(6-piperazin-1-yl-3-pyridyl)-1,3,4,6,7,9,10,10a-octahydropyrazino [1,2-d][1,4]diazepin-2-yl]quinoline-8-carbonitrile]"
2,58.6 nM,"C[C@@H]1CN(c2ccc(C#N)c3ncccc23)C[C@@H]2CCN(c3cnc(N4CCNCC4)nc3)CCN21 [Example 2, 5-[(4R,10aS)-4-methyl-8-(2-piperazin-1-ylpyrimidin-5-yl)-1,3,4,6,7,9,10,10a-octahydropyrazino[1,2-d][1,4]diazepin-2-yl]quinoline-8-carbonitrile]"
3,54 nM,"C[C@@H]1CN(c2ccc(C#N)c3ncccc23)C[C@@H]2CCN(c3ccc([C@H]4CNCCO4)cc3)CCN21 [Example 3, 5-[(4R,10aS)-4-methyl-8-[4-[(2S)-morpholin-2-yl]phenyl]-1,3,4,6,7,9,10,10a-octahydropyrazino[1,2-d][1,4]diazepin-2-yl]quinoline-8-carbonitrile]"
4,17.8 nM,"C[C@@H]1CN(c2ccc(C#N)c3ncccc23)C[C@@H]2CCN(c3cncc4c3CCNC4)CCN21 [Example 4, 5-[(4R,10aS)-4-methyl-8-(5,6,7,8-tetrahydro-2,7-naphthyridin-4-yl)-1,3,4,6,7,9,10,10a-octahydropyrazino[1,2-d][1,4]diazepin-2-yl]quinoline-8-carbonitrile]"
5,38.5 nM,"C[C@@H]1CN(c2ccc(C#N)c3ncccc23)C[C@@H]2CCN(c3ccc4c(n3)CNCC4)CCN21 [Example 5, 5-[(4R,10aS)-4-methyl-8-(5,6,7,8-tetrahydro-1,7-naphthyridin-2-yl)-1,3,4,6,7,9,10,10a-octahydropyrazino[1,2-d][1,4]diazepin-2-yl]quinoline-8-carbonitrile]"
6,48.1 nM,"C[C@@H]1CN(c2ccc(C#N)c3ncccc23)C[C@@H]2CCN(c3ccc4c(n3)CCNC4)CCN21 [Example 6, 5-[(4R,10aS)-4-methyl-8-(5,6,7,8-tetrahydro-1,6-naphthyridin-2-yl)-1,3,4,6,7,9,10,10a-octahydropyrazino[1,2-d][1,4]diazepin-2-yl]quinoline-8-carbonitrile]"
7,61.3 nM,"C[C@@H]1CN(c2ccc(C#N)c3ncccc23)C[C@@H]2CCN(c3cc4c(cn3)CNCC4)CCN21 [Example 7, 5-[(4R,10aS)-4-methyl-8-(5,6,7,8-tetrahydro-2,7-naphthyridin-3-yl)-1,3,4,6,7,9,10,10a-octahydropyrazino[1,2-d][1,4]diazepin-2-yl]quinoline-8-carbonitrile]"
8,14.3 nM,"C[C@@H]1CN(c2ccc(C#N)c3ncccc23)C[C@@H]2CCN(Cc3cc4c(cn3)CNCC4)CCN21 [Example 8, 5-[(4R,10aS)-4-methyl-8-(5,6,7,8-tetrahydro-2,7-naphthyridin-3-ylmethyl)-1,3,4,6,7,9,10,10a-octahydropyrazino[1,2-d][1,4]diazepin-2-yl]quinoline-8-carbonitrile]"
9,8.2 nM,"C[C@@H]1CN(c2ccc(C#N)c3ncccc23)C[C@@H]2CCN(Cc3cc4c(cn3)CCNC4)CCN21 [Example 9, 5-[(4R,10aS)-4-methyl-8-(5,6,7,8-tetrahydro-2,6-naphthyridin-3-ylmethyl)-1,3,4,6,7,9,10,10a-octahydropyrazino[1,2-d][1,4]diazepin-2-yl]quinoline-8-carbonitrile]"
10,9.3 nM,"C[C@@H]1CN(c2ccc(C#N)c3ncccc23)C[C@@H]2CCN(Cc3cnc4c(c3)CNCC4)CCN21 [Example 10, 5-[(4R,10aS)-4-methyl-8-(5,6,7,8-tetrahydro-1,6-naphthyridin-3-ylmethyl)-1,3,4,6,7,9,10,10a-octahydropyrazino[1,2-d][1,4]diazepin-2-yl]quinoline-8-carbonitrile]"
11,6.1 nM,"C[C@@H]1CN(c2ccc(C#N)c3ncccc23)C[C@@H]2CCN(Cc3ccc4c(c3)CCNC4)CCN21 [Example 11, 5-[(4R,10aS)-4-methyl-8-(1,2,3,4-tetrahydroisoquinolin-6-ylmethyl)-1,3,4,6,7,9,10,10a-octahydropyrazino[1,2-d][1,4]diazepin-2-yl]quinoline-8-carbonitrile]"
12,4.5 nM,"C[C@@H]1CN(c2ccc(C#N)c3ncccc23)C[C@@H]2CCN(Cc3ccc4c(c3)CNCC4)CCN21 [Example 12, 5-[(4R,10aS)-4-methyl-8-(1,2,3,4-tetrahydroisoquinolin-7-ylmethyl)-1,3,4,6,7,9,10,10a-octahydropyrazino[1,2-d][1,4]diazepin-2-yl]quinoline-8-carbonitrile]"
13,49.6 nM,"C[C@@H]1CN(c2ccc(C#N)c3ncccc23)C[C@@H]2CCN(Cc3ncc(N4CCNCC4)cn3)CCN21 [Example 13, 5-[(4R,10aS)-4-methyl-8-[(5-piperazin-1-ylpyrimidin-2-yl)methyl]-1,3,4,6,7,9,10,10a-octahydropyrazino[1,2-d][1,4]diazepin-2-yl]quinoline-8-carbonitrile]"
14,1.8 nM,"C[C@@H]1CN(c2ccc(C#N)c3ncccc23)C[C@@H]2CCN(Cc3cnc(N4CCNCC4)nc3)CCN21 [Example 14, 5-[(4R,10aS)-4-methyl-8-[(2-piperazin-1-ylpyrimidin-5-yl)methyl]-1,3,4,6,7,9,10,10a-octahydropyrazino[1,2-d][1,4]diazepin-2-yl]quinoline-8-carbonitrile]"
15,2.2 nM,"C[C@@H]1CN(c2ccc(C#N)c3ncccc23)C[C@@H]2CCN(Cc3cnc(N4CCNCC4)cn3)CCN21 [Example 15, 5-[(4R,10aS)-4-methyl-8-[(5-piperazin-1-ylpyrazin-2-yl)methyl]-1,3,4,6,7,9,10,10a-octahydropyrazino[1,2-d][1,4]diazepin-2-yl]quinoline-8-carbonitrile]"
16,11.1 nM,"C[C@@H]1CN(c2ccc(C#N)c3ncccc23)C[C@@H]2CCN(Cc3cncc(N4CCNCC4)c3)CCN21 [Example 16, 5-[(4R,10aS)-4-methyl-8-[(5-piperazin-1-yl-3-pyridyl)methyl]-1,3,4,6,7,9,10,10a-octahydropyrazino[1,2-d][1,4]diazepin-2-yl]quinoline-8-carbonitrile]"
17,1.2 nM,"C[C@@H]1CN(c2ccc(C#N)c3ncccc23)C[C@@H]2CCN(Cc3ccc(N4CCNCC4)nc3)CCN21 [Example 17, 5-[(4R,10aS)-4-methyl-8-[(6-piperazin-1-yl-3-pyridyl)methyl]-1,3,4,6,7,9,10,10a-octahydropyrazino[1,2-d][1,4]diazepin-2-yl]quinoline-8-carbonitrile]"
18,12.1 nM,"C[C@@H]1CN(c2ccc(C#N)c3ncccc23)C[C@@H]2CCN(Cc3cccc(N4CCNCC4)n3)CCN21 [Example 18, 5-[(4R,10aS)-4-methyl-8-[(6-piperazin-1-yl-2-pyridyl)methyl]-1,3,4,6,7,9,10,10a-octahydropyrazino[1,2-d][1,4]diazepin-2-yl]quinoline-8-carbonitrile]"
19,4.8 nM,"C[C@@H]1CN(c2ccc(C#N)c3ncccc23)C[C@@H]2CCN(Cc3ccc(N4CCNCC4)cn3)CCN21 [Example 19, 5-[(4R,10aS)-4-methyl-8-[(5-piperazin-1-yl-2-pyridyl)methyl]-1,3,4,6,7,9,10,10a-octahydropyrazino[1,2-d][1,4]diazepin-2-yl]quinoline-8-carbonitrile]"
